PubChem BioAssay (NCI)
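Results reflect a 48-hour exposure of cells in 96-well plates to compound at five concentrations. GI50 marks 50% less growth. TGI: concentration producing complete growth inhibition.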

Key:
Assay in all cases: inhibition of tumour cell growth, NCI panel, 48 h
SK-MEL-28 melanoma = tested on: SK-MEL-28 melanoma
NCI-H23 lung = tested on: NCI-H23 lung
CCRF-CEM leukemia = tested on: CCRF-CEM leukemia
SK-MEL-5 melanoma = tested on: SK-MEL-5 melanoma
UO-31 renal = tested on: UO-31 renal
COLO 205 colon = tested on: COLO 205 colon
SNB-19 CNS = tested on: SNB-19 CNS
NCI-H226 lung = tested on: NCI-H226 lung

| SMILES | TGI (SK-MEL-28 melanoma) [µM] | TGI (NCI-H23 lung) [µM] | TGI (CCRF-CEM leukemia) [µM] | TGI (SK-MEL-5 melanoma) [µM] | TGI (UO-31 renal) [µM] | TGI (COLO 205 colon) [µM] | TGI (SNB-19 CNS) [µM] | TGI (NCI-H226 lung) [µM] | GI50 (NCI-H226 lung) [µM] | GI50 (SK-MEL-28 melanoma) [µM] | GI50 (NCI-H23 lung) [µM] | GI50 (CCRF-CEM leukemia) [µM] | GI50 (SK-MEL-5 melanoma) [µM] | GI50 (UO-31 renal) [µM] | GI50 (COLO 205 colon) [µM] | GI50 (SNB-19 CNS) [µM] |
| --- | --- | --- | --- | --- | --- | --- | --- | --- | --- | --- | --- | --- | --- | --- | --- | --- |
| C[Si](C)(C)C(CCCCSc1ccccc1)(Sc1ccccc1)Sc1ccccc1 | > 100 | > 100 | > 100 | > 100 | > 100 | > 100 | > 100 |  |  |  |  |  |  |  |  |  |
| O=C(C#Cc1ccccc1)N1c2ccccc2CC1c1c[nH]c2ccccc12 (stereo not given) | 30.5 | 32.4 | 32 | 30 | > 100 | 31.6 | > 100 | 25.8 |  |  |  |  |  |  |  |  |
| COc1ccc(OC(C(=O)O)C(C)C)c2c1CCCC2=O (stereo not given) | > 100 | > 100 | > 100 | > 100 | > 100 | > 100 | > 100 |  |  |  |  |  |  |  |  |  |
| COc1ccc(-c2cc(C(=O)Nc3cc(C(F)(F)F)cc(C(F)(F)F)c3)c3ccccc3n2)cc1 | 73.9 | 19.2 | > 100 | 34.6 | > 100 | 28.4 |  | 46.9 |  |  |  |  |  |  |  |  |
| [O-]c1ccccc1C=Nc1ccc2c(c1)CCC2.[O-]c1ccccc1C=Nc1ccc2c(c1)CCC2.[O]=[U+2]=[O] | > 100 | > 100 | > 100 | > 100 | > 100 | > 100 | > 100 | > 100 | > 100 | > 100 | > 100 | 8.39 | 60.8 | 31.2 | 55.2 | 27.9 |
| O=c1nc(-c2ccccc2)cc(CC(O)c2ccc(Cl)c(Cl)c2)[nH]1 (stereo not given) | > 100 | > 100 | > 100 | > 100 | 99.3 | 31.7 | > 100 | > 100 |  |  |  |  |  |  |  |  |
| O=C1C(=O)N(c2ccc(Cl)cc2)C(=O)C(=O)C1c1nc2ccccc2s1 | > 100 | > 100 |  | > 100 | > 100 | > 100 | > 100 | > 100 |  |  |  |  |  |  |  |  |
| O=C1OC(c2ccccc2)=N/C1=C\c1ccc(Oc2ccc(Cl)c(Cl)c2)cc1 |  | > 100 | 59.9 | 81.6 | 78.8 | > 100 | > 100 |  |  |  |  |  |  |  |  |  |
| COC(=O)CC(C(C(=O)OCc1ccccc1)C(C)O)N1C(=O)OC(c2ccccc2)C1c1ccccc1 (stereo not given) | > 100 | > 100 | > 100 | > 100 | > 100 | > 100 | > 100 | > 100 |  |  |  |  |  |  |  |  |
| CCOC(=O)CCC1(C(=O)OCC)CCCC1=O (stereo not given) | > 100 | > 100 | > 100 | > 100 | > 100 | > 100 | > 100 | > 100 |  |  |  |  |  |  |  |  |
| COC(=O)CCC12CCC(=O)C1[C@@H](C(=O)OC)C[C@H]2C(=O)OC (stereo not given in full) |  | > 100 | > 100 | > 100 | > 100 | > 100 | > 100 | > 100 |  |  |  |  |  |  |  |  |
| C#CCNC(=O)NCCCCC(NC(=O)OCc1ccccc1)C(=O)OCc1ccccc1 (stereo not given) | > 100 | > 100 | 41.3 | > 100 | > 72.3 | 32.8 | > 100 | > 100 |  |  |  |  |  |  |  |  |
| O=c1cccccc1NCCCCCCCNc1cccccc1=O |  | > 100 | 67.2 |  | 80.3 | > 100 | > 100 | > 100 |  |  |  |  |  |  |  |  |
| O=C(O)c1cc(=O)c2c([nH]c3ccccc32)s1 | > 100 | > 100 | > 100 | > 100 | > 100 | > 100 | > 100 |  |  |  |  |  |  |  |  |  |
| Cl/C(N=Nc1ccccc1)=N/Nc1ccccc1 | > 100 | > 100 | > 100 |  |  | > 100 | > 100 | > 100 |  |  |  |  |  |  |  |  |
| COC(=O)C1C(=O)CC2CCCCC21 (stereo not given) | > 100 |  | > 100 | > 100 | > 100 | > 100 | > 100 | > 100 |  |  |  |  |  |  |  |  |
| CC1(C)C2CCC3(OCCO3)C1C(O)C2 (stereo not given) | > 100 | > 100 | > 100 | > 100 | > 100 |  | > 100 | > 100 |  |  |  |  |  |  |  |  |
| CN(C)/C=N\c1ccnc(=O)[nH]1 | > 100 |  | > 100 | > 100 | > 100 | > 100 |  | > 100 |  |  |  |  |  |  |  |  |
| N#C/C(=C\c1cccc(O)c1O)C(N)=O | > 100 | > 100 | 45.3 |  | 85.3 | 77.7 | > 100 | 88 |  |  |  |  |  |  |  |  |
| Cc1ccc(Oc2ccccc2N)cc1 | 80.2 | > 100 | > 100 | 26.2 | 44.9 | 19.2 | > 100 |  |  |  |  |  |  |  |  |  |
| NNc1cnn(-c2ccccc2)c(=O)c1Cl | > 100 | > 100 | > 100 | > 100 | > 100 | > 100 |  | > 100 |  |  |  |  |  |  |  |  |
| CNc1ccc2ncccc2c1[N+](=O)[O-] | > 100 | > 100 | > 100 | > 100 | > 100 |  | > 100 | > 100 |  |  |  |  |  |  |  |  |
| C#CCNC(=O)ON1C(=O)CCC1=O | > 100 | > 100 | > 100 |  | > 100 | > 100 | > 100 |  |  |  |  |  |  |  |  |  |
